The results in this text go back to US6534503B1, “Melanocortin receptor-3 ligands to treat sexual dysfunction” (Lion Bioscience AG, priority 1998, dated 2003).

For assay [1], the target named is T1, MC-3 (Homo sapiens, UniProt P41968).
T1 construct: expressed in transfected cells; host or cells: HEK 293
The assay can be described thus: cAMP assay for melanocortin receptors, HEK 293 cells expressing MC-3. The assay is classed as cell-based. The following applies: for Emax: HEK293, percentage of stimulation obtained by adding HP-228 at 0.8 μM, read-out: % of HP-228 (MC-3 stimulatory effect); for EC50: concentration for 50% of the maximum increase by that ligand. From the text: (§1) All cell culture media and reagents were obtained from GibcoBRL (Gaithersburg Md.), except for COSMIC CALF SERUM (HyClone; Logan Utah). HEK 293 cell lines were transfected with human MC receptors hMCR-1, hMCR-3 and hMCR-4 (Gantz et al., Biochem. Biophys. Res. Comm. 200:1214-1220 (1994); Gantz et al., J. Biol. Chem. 268:8246-8250 (1993); Gantz et al. J. Biol. Chem. 268:15174-15179 (1993); Haskell-Leuvano et al., Biochem. Biophys. Res. Comm. 204:1137-1142 (1994)). Vectors for constructing an hMCR-5-expressing cell line were obtained and a line of HEK 293 cells expressing hMCR-5 was constructed (Gantz, supra, 1994). Receptor hMCR-5 has been described previously (Franberg et al., Biochem. Biophys. Res. Commun. 236:489-492 (1997); Chowdhary et al., Cytogenet. Cell Genet. 68:1-2 (1995); Chowdhary et al., Cytogenet. Cell Genet. 68:79-81 (1995)). HEK 293 cells were maintained in DMEM, 25 mM HEPES, 2 mM glutamine, non-essential amino acids, vitamins, sodium pyruvate, 10% COSMIC CALF SERUM, 100 units/ml penicillin, 100 μg/ml streptomycin and 0.2 mg/ml G418 to maintain selection.
(§2) This example describes methods for assaying cAMP production from G-protein-coupled MC receptors.
(§3) HEK 293 cells individually expressing MCR-1, CR-3, MCR-4 or MCR-5 were used. Cells were plated at 20,000 cells per well in a 96-well plate coated with collagen (Beckton Dickinson; Bridgeport N.J.). The next day, cells were pretreated with 88 μl of 0.4 mM 3-isobutyl-1-methylxanthine (IBMX) in low serum medium containing DMEM, 25 mM HEPES and 0.1% COSMIC CALF SERUM. IBMX is an inhibitor of cAMP phosphodiesterase. The pretreatment was carried out for 10 minutes at 37° C.
(§4) Following pretreatment, 12.5 μl of diluted compound was added to the wells and cells were incubated for 15 min at 37° C. Cells were lysed by adding 25 μl saponin lysis buffer (130 mM KCl, 1 mM KH2PO4, 2.5 mM MgSO4, 15 mM sucrose, 20 mM HEPES, 2% BSA, 0.8% saponin) and incubating 2 to 5 minutes. Plates were covered and stored at −20° C.
(§5) The cAMP concentration was determined by ELISA. Briefly, 96 well ELISA plates were coated with goat anti-cAMP antibody in PBS for 12 to 72 hr at 4° C. 50 μl of sample was mixed with 50 μl of cAMP ELISA buffer containing 1% bovine serum albumin, 10% heat inactivated donor horse serum, 1% normal mouse serum and 0.05% TWEEN-20 in PBS, and the diluted sample was added to the coated ELISA plate. Standards of known concentrations of cAMP were added to separate wells. Then, cAMP-conjugated horseradish peroxidase (cAMP-HRP) was added to each well at 25 μl of 16 ng/ml. The plates were incubated for 3 hr at room temperature. Plates were washed and the binding of cAMP-HRP was detected with 3,3′,5,5′-tetramethylbenzidine (TMB) and hydrogen peroxide using standard immunoassay procedures.
(§6) Various compounds were tested for in vitro activity and binding to melanocortin receptors. MC-3 stimulatory effect is also described in terms of percentage of stimulation obtained by adding HP-228 at 0.8 μM. The EC50 values are the concentration of ligand necessary to achieve 50% of the maximum increase by that ligand in an assay. The IC50 values are the concentration giving 50% inhibition of binding of ^125I-HP 467.
Background: Changes in cAMP serve as a functional read-out for many G protein-coupled receptors.

The target of assay [2] is T2, MC-1 (Homo sapiens, UniProt Q01726).
T2 construct: expressed in transfected cells; host or cells: HEK 293
T2 sequence (Q01726 whole entry): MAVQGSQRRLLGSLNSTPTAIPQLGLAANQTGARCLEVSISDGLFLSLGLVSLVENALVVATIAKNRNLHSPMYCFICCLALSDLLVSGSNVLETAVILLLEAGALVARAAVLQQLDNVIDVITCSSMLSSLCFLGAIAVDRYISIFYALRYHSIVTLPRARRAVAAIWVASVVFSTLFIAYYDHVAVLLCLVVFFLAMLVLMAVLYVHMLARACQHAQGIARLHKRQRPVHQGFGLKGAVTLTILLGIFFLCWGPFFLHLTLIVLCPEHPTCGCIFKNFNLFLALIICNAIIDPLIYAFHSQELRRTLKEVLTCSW
The assay can be described thus: cAMP assay for melanocortin receptors, HEK 293 cells expressing MC-1. The assay is classed as cell-based. The conditions noted are these: concentration for 50% of the maximum increase by that ligand.
Source text: as §1, §2, §3, §4
as §5, with “procedures. […]” for “procedures.”

Assay [3] concerns the target T3, MC-4 (Homo sapiens, UniProt P32245).
T3 construct: expressed in transfected cells; host or cells: HEK 293
The assay can be described thus: cAMP assay for melanocortin receptors, HEK 293 cells expressing MC-4. The format is cell-based. The conditions noted are these: concentration for 50% of the maximum increase by that ligand.
Source text: as §1, §2, §3, §4, §5, §6

Assay [4] deals with male Sprague-Dawley rats. The assay can be described thus: Effect of oxytocin receptor antagonist vasotocin on erectile effects in rats. The format is in vivo. The conditions noted are these: rat. The source says: (§7) In both examples, male Sprague-Dawley rats, about 200 to 225 g, were acclimated for 5 days in a reverse light:dark cycle room (dark 10 a.m. to 10 p.m.) before being aseptically ICV cannulated. Rats with indwelling ICV cannulae were housed one per cage. After surgery, 4 days were allowed for recovery and 10 days total were allowed for adaptation to the light cycle. Rats were caged individually after surgery and body weights at the time of treatment averaged 250 g. Otherwise, the procedure is essentially the same as in Example II.
Treatment was between 10 a.m. and 1 p.m. […] Vasotocin (Peninsula Laboratories, San Carlos Calif.) was administered ICV at 100 ng/rat. Oxytocin (Sigma, St. Louis Mo.) was administered ICV at 30 ng/rat (10 μl/rat PBS). Ten minutes later, IP injections of HP-228 or vehicle were given. HP-228 was administered IP at 2 mg/kg in 3 ml/kg PBS. One group of animals received ICV injections of vasotocin and oxytocin ICV injections of 5 μl/rat each at double concentrations for a total of 10 μl injected ICV. In this group, the rats received vasotocin first, followed by oxytocin.

Assay [5] deals with male Sprague-Dawley rats. The assay can be described thus: Effect of dopamine receptor antagonist sulpiride on erectile effects in rats. The assay is classed as in vivo. The following applies: rat.
Source text: as §7
Treatment was between 9:30 a.m. and noon. Each animal received an initial IP injection of vehicle (3 ml/kg PBS) or sulpiride. Sulpiride (Sigma) was administered IP at 50 mg/kg (6 ml/kg IP). Ten minutes later, the animals received a final IP injection of HP-228 or vehicle or a SC injection of apomorphine. HP-228 was administered IP at 2 mg/kg in 3 ml/kg PBS. Apomorphine (Sigma) was administered SC at 0.1 mg/kg (1 ml/kg sterile water).

Where [6] appears, read: single agent plus PBS: oxytocin 30 ng/rat ICV, HP-228 2 mg/kg IP, vasotocin 100 ng/rat ICV.
The mark [7] stands for this setting: single agent plus PBS: apomorphine 0.1 mg/kg SC, HP-228 2 mg/kg IP, sulpiride 50 mg/kg IP.
Setting [8] is: sulpiride 50 mg/kg IP followed by HP-228 2 mg/kg IP.
The mark [9] stands for this setting: sulpiride 50 mg/kg IP followed by apomorphine 0.1 mg/kg SC.
Setting [10] is: vasotocin 100 ng/rat ICV followed by HP-228 2 mg/kg IP.
Setting [11] is: vasotocin ICV followed by oxytocin ICV.

As a reminder, the EC50 is the concentration that produces a half-maximal response. A low value points to an effect from little substance.

T3 sequence (P32245 whole entry): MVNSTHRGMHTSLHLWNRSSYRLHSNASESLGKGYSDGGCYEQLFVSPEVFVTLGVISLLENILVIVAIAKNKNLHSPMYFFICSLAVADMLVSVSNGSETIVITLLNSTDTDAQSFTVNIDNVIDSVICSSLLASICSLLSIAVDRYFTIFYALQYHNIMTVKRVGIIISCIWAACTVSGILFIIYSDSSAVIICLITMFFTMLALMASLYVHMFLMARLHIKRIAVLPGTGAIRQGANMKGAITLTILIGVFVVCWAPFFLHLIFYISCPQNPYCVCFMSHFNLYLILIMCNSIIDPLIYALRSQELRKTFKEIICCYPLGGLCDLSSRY
T1 sequence (P41968 whole entry): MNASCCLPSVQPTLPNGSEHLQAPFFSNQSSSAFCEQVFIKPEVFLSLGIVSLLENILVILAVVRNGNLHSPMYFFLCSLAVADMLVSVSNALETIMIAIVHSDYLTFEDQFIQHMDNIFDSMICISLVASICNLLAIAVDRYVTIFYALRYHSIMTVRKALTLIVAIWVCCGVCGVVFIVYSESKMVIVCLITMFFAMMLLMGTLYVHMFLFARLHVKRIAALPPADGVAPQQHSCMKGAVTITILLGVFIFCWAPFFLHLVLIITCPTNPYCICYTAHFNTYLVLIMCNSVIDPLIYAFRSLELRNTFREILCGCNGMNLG

For the compound `CC(C)(C)c1ccc(-c2nc3cc(C(=O)N(CCc4ccccc4)Cc4ccccc4)ccc3n2C(CCCNC(=N)N)C(N)=O)cc1` (centres unmarked) [Compound A], in assay [1], the Emax came out at 89% and the response was half-maximal at 7650 nM (EC50). In addition, the concentration for a half-maximal effect (EC50) in assay [2] was 470 nM.

For `CCCCOc1ccc(-c2nc3cc(C(=O)NC(Cc4ccccc4)c4ccccc4)ccc3n2C(CCCNC(=N)N)C(N)=O)cc1` (centres unmarked) [Compound B], the Emax in assay [1] turned out to be 115%. Also, the EC50 in assay [1] worked out at 1330 nM; in assay [3], 12000 nM.

Take `CC(C)c1ccc(-c2nc3cc(C(=O)NC(Cc4ccccc4)c4ccccc4)ccc3n2C(CCCNC(=N)N)C(N)=O)cc1` (centres unmarked) [Compound C]: in assay [1], the Emax turned out to be 92% and the 50% effective concentration (EC50) was 1400 nM. Also, the EC50 in assay [3] was found to be 10600 nM.

Regarding `CC(C)c1ccc(-c2nc3cc(C(=O)N(CCc4ccccc4)Cc4ccccc4)ccc3n2C(CCCNC(=N)N)C(N)=O)cc1` (centres unmarked) [Compound D], in assay [1], the Emax was found to be 140% and a half-maximal effect (EC50) was put at 1700 nM. In addition, the EC50 in assay [3] is 2800 nM.

As to `CC(C)(C)c1ccc(-c2nc3cc(C(=O)NC(Cc4ccccc4)c4ccccc4)ccc3n2C(CCCNC(=N)N)C(N)=O)cc1` (centres unmarked) [Compound E], in assay [1], the Emax came out at 59%. Also, the figures for the EC50 in assay [1], in assay [2] and in assay [3] were 6700 nM, 430 nM and 19900 nM, respectively.

On to `CC(C)(C)c1ccc(-c2nc3cc(C(=O)N4CC=C(c5ccc(Cl)cc5)CC4)ccc3n2[C@@H](CCCNC(=N)N)C(N)=O)cc1` [Compound K], for which the Emax in assay [1] worked out at 91%. Further, the EC50 in assay [1] came to 1750 nM; in assay [2] it was 380 nM; in assay [3] it was 80 nM.

Turning to `CC(C)(C)c1ccc(-c2nc3cc(C(=O)N(CCc4ccccc4)Cc4cccnc4)ccc3n2[C@@H](CCCNC(=N)N)C(N)=O)cc1` [Compound L], the Emax in assay [1] is 350%. Moreover, the EC50 in assay [1] amounted to 4690 nM; in assay [2], 220 nM; in assay [3] it was 6350 nM.

In the case of `CCCCOc1ccc(-c2nc3cc(C(=O)N(CCc4ccccc4)Cc4cccnc4)ccc3n2[C@@H](CCCNC(=N)N)C(N)=O)cc1` [Compound M], in assay [1], the Emax was 89% and the EC50 is 3670 nM.

`CCCCCc1ccc(-c2nc3cc(C(=O)N(CCc4ccccc4)Cc4ccccc4)ccc3n2[C@@H](CCCNC(=N)N)C(N)=O)cc1` [Compound N]: the Emax in assay [1] came out at 229%. For the same compound, the results for the half-maximal effective concentration (EC50) in assay [1] and in assay [3] were 2320 nM and 5900 nM, respectively.

As for `CC[C@H](C)[C@@H]1NC(=O)[C@H](Cc2ccc(O)cc2)NC(=O)[C@@H](N)CSSC[C@@H](C(=O)N2CCC[C@H]2C(=O)N[C@@H](CC(C)C)C(=O)NCC(N)=O)NC(=O)[C@H](CC(N)=O)NC(=O)[C@H](CCC(N)=O)NC1=O` [Oxytocin], the “response rate, % of animals” value in assay [4] (oxytocin and HP-228 groups) is recorded as 88%-100%. Also, in assay [4] (setting [6]), the erections per hour was determined as 3.9 erections per hour and the “responder rate of animals (rats responding out of rats)” value is listed as 7/8.

`CN1CCc2cccc3c2[C@H]1Cc1ccc(O)c(O)c1-3` [apomorphine]: the “response rate, % of animals” value in assay [5] (apomorphine and HP-228 groups) came out at 100%. In assay [5] (setting [7]), the erections per hour is recorded as 4.0 erections per hour and the “rate of animals responding” value is given as 6/6.

On to `CCN1CCCC1CNC(=O)c1cc(S(N)(=O)=O)ccc1OC` (centres unmarked) [sulpiride], for which the erections per hour is reported as 0.0 erections per hour in assay [5] (setting [7]), 6.7 erections per hour in assay [5] (setting [8]) and 1.5 erections per hour in assay [5] (setting [9]). The “rate of animals responding” value in assay [5] (setting [7]) is listed as 0/2; in assay [5] (setting [8]), 4/4; in assay [5] (setting [9]) it was 3/4.

Take d(CH2)5-Tyr(Me^2)-Orn^8-Vasotocin: the erections per hour is recorded as 0.2 erections per hour in assay [4] (setting [6]), 5.6 erections per hour in assay [4] (setting [10]) and 1.0 erections per hour in assay [4] (setting [11]). Besides, the “responder rate of animals (rats responding out of rats)” value is 2/8 in assay [4] (setting [6]), 8/8 in assay [4] (setting [10]) and 4/8 in assay [4] (setting [11]).
